Legend:
[1] = system: WT C57BL/6 J mice; experiment: Muscle and fat weights and body composition of treated WT mice; format: in vivo, mouse; settings: 1 mg/kg i.p. every 3 days, 12 weeks
Procedure: To determine the effects of H19-Rgof with a skeletal muscle enrichment peptide agrin (AGR-H19-Rgof) on WT C57BL/6 J or Lep^Ob/Ob mice, AGR-tagged oligonucleotides were used. The synthesis and sequence information of AGR-tagged RNA oligonucleotides are described in “Synthesis of H19-Rgof mimics, AGR-H19-Rgof mimics, and Pharmacokinetics (PK) studies.” AGR-Scr (conjugated to scramble oligonucleotides), H19-Rgof, or AGR-H19-Rgof mimics were injected at a dose of 1 mg/kg intraperitoneally into 3-week-old male and female mice. For AGR-H19-Rgof treatment in HFD (Cat # D12492, Research Diets, Inc.)-fed mice, male C57BL/6 J mice were fed with a HFD starting at 6 weeks of age. The AGR-H19-Rgof and AGR-Scr mimics were injected at a dose of 0.5 or 1 mg/kg intraperitoneally every other day starting 2 weeks after the initiation of HFD feeding. Body weight was measured weekly. The general health condition, grooming, and behavior of all animals were monitored daily, and injection sites were checked for signs of redness or edema.
Unless otherwise indicated, mice were fasted for 4–6 h, anesthetized with isoflurane, and sacrificed by heart puncture. Tissues were dissected, weighed, and either dipped in liquid nitrogen or fixed for immunohistochemistry analysis. Individual muscle was dissected on one side of the body and weighed. Adipose tissues including white adipose tissue (WAT), visceral adipose tissue (VAT), and brown adipose tissue (BAT) were collected and weighed.
(§1) Whole-body composition parameters were measured in male and female mice fed with either chow or HFD by Faxitron Specimen Radiography System (Faxitron X-Ray Corp.) to precisely measure total body fat and lean mass. Mice were housed in the Oxymax/CLAMS metabolic cage system (Columbus Instruments) for 4 days with ad libitum access to food and water. Volume of oxygen uptake (VO2) and exhaled carbon dioxide (VCO2), respiratory exchange ratio (RER), and activity were measured using the Oxymax system. RER is determined by dividing VCO2 produced by VO2 consumed.

[2] = system: C57BL/6 J mice; experiment: Run-to-exhaustion and sprint treadmill tests; format: in vivo, mouse
Procedure: Exhaustion treadmill running and sprint running were used to evaluate the physiological activity of the mice. The mice were repeatedly exercised twice weekly for 2 weeks using a treadmill (Ugo Basile, 57631, Stoelting). For the animal exercise, mice were placed on the horizontal treadmill starting at 5 m/min and kept on for about 10 min. The speed was then increased to 10 m/min for the remaining 30 min. Treadmill training was […] and followed a standardized protocol. When performing the speed test, the mice were placed on a treadmill with a 15° incline. We increased the speed from 6 m/min to 26 m/min at increments of 2 m/min, which each increment lasting 2 min. Mice were considered to have reached the point of exhaustion when they made contact with the grid for a period of time greater than 5 s. The running speed of the mice was recorded and the animals were returned to their cages once exhausted. For the sprint test: the sprint regimen consisted of mice warming up for 3 min at 6 m/min on a 0° incline, followed by a 2 min run at the same speed with a 15° incline. Subsequent runs were performed at a 15° incline. Speed was first increased to 14 m/min for 30 s, followed by 1.5 min of low speed running at 6 m/min. The speed was then increased to 18 m/min for 30 s. Afterwards, we increased the speed from 18 m/min to 24 m/min at 2 m/min increments, with each increment lasting 15 s […]. After that, the mice continued interval running at 6 m/min for 3 min, followed by an increase in the speed from 20 m/min to 32 m/min at 4 m/min increments, with each increment lasting 15 s. This pattern of exercise continued with subsequent intervals running at 6 m/min for 3 min, followed by a sharp increase in speed from 22 m/min to 34 m/min at 4 […], with each increment lasting 15 s. This pattern was repeated with increasing speed until the mice could no longer keep up and gave up on the grid.

[3] = system: C57BL/6 J mice; experiment: Echocardiography and diaphragm/aorta histology; format: in vivo, mouse; settings: vs AGR-Scr
Procedure: The heart function of the mice was assessed using functional rodent echocardiography. After their body hair from the neckline to mid chest level was removed with hair removal cream, the mice were anesthetized with 2% isoflurane in the induction chamber and placed in a supine position atop a heating pad to maintain body temperature. The concentration of isoflurane was adjusted to keep a target heart rate of 450 ± 50 beats per minute (bpm). A rectal probe was gently inserted to continuously monitor and adjust body temperature (37.0 °C ± 0.5 °C) via the heating pad. Electrode gel was applied to all four paws, which were then taped to the ECG electrodes. The mice were subjected to transthoracic echo using Vevo 2100 (MS-550D, 22–55 MHz, VisualSonics Inc.).
Tissues were fixed in 10% Neutral Buffered Formalin embedded in paraffin, sectioned at 5 μm, and stained with hematoxylin/eosin (H&E). Detection of H19 expression using a RNAScope probe (designed by Advanced Cell Diagnostics) was performed on mouse tissues with a RNAScope 2.0 High Definition Assay kit according to the manufacturer's instructions (Advanced Cell Diagnostics). The images were visualized with a Zeiss Axioskop2 plus Microscope, and the slides were scanned on the Automated Cellular Image System III for quantification by digital image analysis.

[4] = system: C57BL/6 J mice; experiment: Oxymax/CLAMS metabolic cage study; format: in vivo, mouse; settings: n = 4
Procedure: as §1

[5] = system: C57BL/6 J mice; experiment: Blood analyses (serum lipids, hormones, ALT, AST)
Procedure: Whole blood was collected by tail bleeding from un-anesthetized mice or cardiac puncture from mice under deep terminal anesthesia. Mice have been fasted for 4–6 h before blood collection. Total cholesterol (TC) and triglycerides (TG) were determined by enzymatic assays using commercial kits (BioAssay Systems). Alanine aminotransferase (ALT) and aspartate aminotransferase (AST) levels were measured using Alanine Transaminase Colorimetric Activity Assay Kit (700260, Cayman Chemical) and EnzyChrom Aspartate Transaminase Assay Kit (EASTR-100, BioAssay Systems). Serum levels of leptin (ELM-Leptin-1, RayBiotech), IGF1 (RAB0229, Sigma), IGF2 (RAB0231, Sigma), insulin (90080, Crystal Chem), and testosterone (KGE010, R&D) were measured by ELISA assay according to the manufacturer’s instructions.

[6] = HFD-fed mice, vs AGR-Scr, n = 5

## N-terminal-ELTNEIPAELTNEIPA-Linker-5'-[2’-F-C][2’-F-U][2’-F-C][2’-F-U][2’-F-U][2’-F-U][2’-F-A][2’-F-U][2’-F-U][2’-F-U][2’-F-C][2’-F-U][2’-F-G][2’-F-A][2’-F-G][2’-F-C][2’-F-U][2’-F-U][2’-F-U][2’-F-C][2’-F-C][2’-F-U][2’-F-A][2’-F-U][2’-F-C][2’-F-U][2’-F-U][2’-F-U][2’-F-C][2’-F-C]-3' [AGR-H19-Rgof]
[1]; vs AGR-Scr
  body weight (body composition analysis): increased body weight
  fat percentage (body composition analysis): reduced
  fat weight (body composition analysis): reduced
  lean weight (body composition analysis): increased
[1]; vs AGR-Scr or H19-Rgof
  fat weight (BAT, WAT, VAT): reduced fat weight
  muscle weight: increased muscle weight
[2]; [6]
  running speed: elevated
  total running time: elevated
[2]; WT male and female mice, vs Scr-treated controls, n = 15
  running speed, treadmill exhaustion test: increased speed
[2]; WT male and female mice, vs control, n = 10
  maximum running speed, sprint interval treadmill: elevated
[3]; echocardiography, n = 10
  LV end diastolic diameter, LV stroke volume, LV ejection fraction, LV fractional shortening, interventricular septal end diastole: minimally affected
[3]; histology, n = 6
  aorta tunica media and tunica adventitia thickness: unaltered
  diaphragm thickness: increased thickness
[4]; HFD-fed male mice, vs AGR-Scr
  overall food intake: similar
[4]; HFD-fed mice, CLAMS
  energy expenditure: elevated
[4]; HFD-fed mice, CLAMS, vs AGR-Scr
  total activity: similar
[4]; WT male mice on chow, CLAMS, vs control
  activity per day/night: not significantly altered
[4]; WT male mice on chow, vs control
  total food intake: not significantly altered
[4]; WT mice on chow, CLAMS, vs AGR-Scr
  respiratory exchange ratio (RER): elevated
[5]; HFD-fed male mice, n = 10, 7
  serum triglyceride concentrations: reduced
[5]; HFD-fed male mice, serum
  IGF1 concentration: unaltered
  IGF2 concentration: unaltered
[5]; HFD-fed mice, n = 10, 9
  total cholesterol: reduced
[5]; HFD-fed mice, serum, n = 7, 7
  leptin: reduced
[5]; WT mice on chow, serum, vs AGR-Scr, n = 5
  total cholesterol: reduced
[5]; WT mice on chow, vs AGR-Scr, n = 7
  serum triglyceride concentrations: reduced

Reference: article PMC8403366, “Functional significance of gain-of-function H19 lncRNA in skeletal muscle differentiation and anti-obesity effects” (Genome Medicine, 2021)
